From patent publication US6624182B1, “Hydroxyphenylvinylthiazoles” (Ciba Specialty Chemicals Corporation, priority 1999, dated 2003)

Columns and labels:
Experiment in all cases: Determination of the minimum inhibitory concentration (MIC value) in microtitre plates
C. albicans = assay type: cell-based, Candida albicans ATCC 10231; conditions: optical density at 620 nm, 48 hours at 37° C., MIC = ≦20% growth; tested at 100; 10 and 1 ppm (approximate values); (2), (3), (4) at 120; 60; 30; 15; 7.5; 3.75 ppm
Method in brief: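 Candida albicans ATCC 10231 grown overnight in CASO broth, adjusted to 1–5×10^6 CFU/ml then diluted 1:100, was exposed to 1:2 serial dilutions of compound (DMSO) for 48 h at 37 °C. Growth was read as OD620; MIC was the concentration giving ≤20% growth versus control, tested in duplicate.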

P. aeruginosa = assay type: cell-based, Pseudomonas aeruginosa CIP A-22; conditions: optical density at 620 nm, 48 hours at 37° C., MIC = ≦20% growth; tested at 100; 10 and 1 ppm (approximate values); (2), (3), (4) at 120; 60; 30; 15; 7.5; 3.75 ppm
Method in brief: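 P. aeruginosa CIP A-22 at 1−5×10^6 KBE/ml, diluted 1:100 in CASO bouillon, exposed to 1:2 serial dilutions of DMSO-dissolved compound for 48 h at 37 °C, in duplicate. Growth read by OD 620 nm; MIC is the lowest concentration giving ≤20% growth relative to growth control.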

E. coli = assay type: cell-based, Escherichia coli NCTC 8196; conditions: optical density at 620 nm, 48 hours at 37° C., MIC = ≦20% growth; tested at 100; 10 and 1 ppm (approximate values); (2), (3), (4) at 120; 60; 30; 15; 7.5; 3.75 ppm
Method in brief: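 E. coli NCTC 8196 grown overnight in CASO bouillon, adjusted to 1−5×10^6 KBE/ml, diluted 1:100 and added to DMSO-dissolved compounds in 1:2 dilution series. Incubated 48 h at 37° C; growth read as OD 620 nm. MIC is the lowest concentration giving ≤20% growth versus growth control; duplicates.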

A. niger = assay type: cell-based, Aspergillus niger ATCC 6275; conditions: optical density at 620 nm, 5 days at 28° C., MIC = ≦20% growth; tested at 100; 10 and 1 ppm (approximate values); (2), (3), (4) at 120; 60; 30; 15; 7.5; 3.75 ppm
Method in brief: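 A. niger ATCC 6275 spores, adjusted to 1−5×10^6 KBE/ml and diluted 1:100 in Sabouraud 2% glucose bouillon, were exposed to 2-fold dilutions of DMSO-dissolved compounds for 5 days at 28°C. Growth read as OD at 620 nm. MIC is the lowest concentration giving ≤20% growth versus growth control, tested in duplicate.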

S. aureus = assay type: cell-based; conditions: optical density at 620 nm, 48 hours at 37° C., MIC = ≦20% growth; tested at 100; 10 and 1 ppm (approximate values); (2), (3), (4) at 120; 60; 30; 15; 7.5; 3.75 ppm
Method in brief: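 DMSO-dissolved compounds were tested in 1:2 serial dilutions against bacteria in CASO bouillon, from inocula of 1−5×10^6 KBE/ml diluted 1:100. Growth was read by OD 620 nm after 48 h at 37 °C. MIC was the lowest concentration giving ≦20% growth versus the growth control, tested in duplicate.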

CCc1csc(/C=C/c2ccc(OC)c(O)c2)n1 [Compound of formula (41)]
>100 ppm: MIC values in ppm C. albicans (C. albicans) | MIC values in ppm P. aeruginosa (P. aeruginosa) | MIC values in ppm E. coli (E. coli) | MIC values in ppm A. niger (A. niger) | MIC values in ppm S. aureus (S. aureus)

CCOc1cc(/C=C/c2nc(CC)cs2)ccc1O [Compound of formula (42)]
>100 ppm: MIC values in ppm C. albicans (C. albicans) | MIC values in ppm P. aeruginosa (P. aeruginosa) | MIC values in ppm E. coli (E. coli) | MIC values in ppm A. niger (A. niger) | MIC values in ppm S. aureus (S. aureus)

CCc1csc(/C=C/c2ccc(O)c(OC)c2)n1 [Compound of formula (43)]
>100 ppm: MIC values in ppm C. albicans (C. albicans) | MIC values in ppm P. aeruginosa (P. aeruginosa) | MIC values in ppm E. coli (E. coli) | MIC values in ppm A. niger (A. niger) | MIC values in ppm S. aureus (S. aureus)

CCc1csc(/C=C/c2ccc(OC)cc2O)n1 [Compound of formula (44)]
>100 ppm: MIC values in ppm C. albicans (C. albicans) | MIC values in ppm P. aeruginosa (P. aeruginosa) | MIC values in ppm E. coli (E. coli) | MIC values in ppm A. niger (A. niger) | MIC values in ppm S. aureus (S. aureus)

CCc1csc(/C=C/c2ccccc2O)n1 [Compound of formula (45)]
>100 ppm: MIC values in ppm C. albicans (C. albicans) | MIC values in ppm P. aeruginosa (P. aeruginosa) | MIC values in ppm E. coli (E. coli) | MIC values in ppm A. niger (A. niger) | MIC values in ppm S. aureus (S. aureus)

CCc1csc(/C=C/c2cc(O)c(OC)c(OC)c2)n1 [Compound of formula (46)]
>100 ppm: MIC values in ppm C. albicans (C. albicans) | MIC values in ppm P. aeruginosa (P. aeruginosa) | MIC values in ppm E. coli (E. coli) | MIC values in ppm A. niger (A. niger) | MIC values in ppm S. aureus (S. aureus)

CCc1csc(/C=C/c2cc(C)c(O)c(C)c2)n1 [Compound of formula (47)]
>100 ppm: MIC values in ppm C. albicans (C. albicans) | MIC values in ppm P. aeruginosa (P. aeruginosa) | MIC values in ppm E. coli (E. coli) | MIC values in ppm A. niger (A. niger) | MIC values in ppm S. aureus (S. aureus)

CCc1csc(/C=C/c2cccc(C)c2O)n1 [Compound of formula (48)]
>100 ppm: MIC values in ppm C. albicans (C. albicans) | MIC values in ppm P. aeruginosa (P. aeruginosa) | MIC values in ppm E. coli (E. coli) | MIC values in ppm A. niger (A. niger) | MIC values in ppm S. aureus (S. aureus)

CCc1csc(/C=C/c2ccc(OCc3ccccc3)cc2O)n1 [Compound of formula (49)]
>100 ppm: MIC values in ppm C. albicans (C. albicans) | MIC values in ppm P. aeruginosa (P. aeruginosa) | MIC values in ppm E. coli (E. coli) | MIC values in ppm A. niger (A. niger) | MIC values in ppm S. aureus (S. aureus)

CCc1csc(/C=C/c2ccc(O)cc2OC)n1 [Compound of formula (50)]
>100 ppm: MIC values in ppm C. albicans (C. albicans) | MIC values in ppm P. aeruginosa (P. aeruginosa) | MIC values in ppm E. coli (E. coli) | MIC values in ppm A. niger (A. niger) | MIC values in ppm S. aureus (S. aureus)

Oc1cccc(/C=C/c2nc(-c3ccccc3)cs2)c1 [Compound of formula (51)]
>100 ppm: MIC values in ppm C. albicans (C. albicans) | MIC values in ppm P. aeruginosa (P. aeruginosa) | MIC values in ppm E. coli (E. coli) | MIC values in ppm A. niger (A. niger) | MIC values in ppm S. aureus (S. aureus)

COc1ccc(/C=C/c2nc(-c3ccccc3)cs2)cc1O [Compound of formula (52)]
>100 ppm: MIC values in ppm C. albicans (C. albicans) | MIC values in ppm P. aeruginosa (P. aeruginosa) | MIC values in ppm E. coli (E. coli) | MIC values in ppm A. niger (A. niger) | MIC values in ppm S. aureus (S. aureus)

CCOc1cc(/C=C/c2nc(-c3ccccc3)cs2)ccc1O [Compound of formula (53)]
>100 ppm: MIC values in ppm C. albicans (C. albicans) | MIC values in ppm P. aeruginosa (P. aeruginosa) | MIC values in ppm E. coli (E. coli) | MIC values in ppm A. niger (A. niger) | MIC values in ppm S. aureus (S. aureus)

COc1cc(/C=C/c2nc(-c3ccccc3)cs2)ccc1O [Compound of formula (54)]
>100 ppm: MIC values in ppm C. albicans (C. albicans) | MIC values in ppm P. aeruginosa (P. aeruginosa) | MIC values in ppm E. coli (E. coli) | MIC values in ppm A. niger (A. niger) | MIC values in ppm S. aureus (S. aureus)

COc1ccc(/C=C/c2nc(-c3ccccc3)cs2)c(O)c1 [Compound of formula (55)]
>100 ppm: MIC values in ppm C. albicans (C. albicans) | MIC values in ppm P. aeruginosa (P. aeruginosa) | MIC values in ppm E. coli (E. coli) | MIC values in ppm A. niger (A. niger) | MIC values in ppm S. aureus (S. aureus)

Oc1ccccc1/C=C/c1nc(-c2ccccc2)cs1 [Compound of formula (56)]
>100 ppm: MIC values in ppm C. albicans (C. albicans) | MIC values in ppm P. aeruginosa (P. aeruginosa) | MIC values in ppm E. coli (E. coli) | MIC values in ppm A. niger (A. niger) | MIC values in ppm S. aureus (S. aureus)

COc1cc(/C=C/c2nc(-c3ccccc3)cs2)cc(O)c1OC [Compound of formula (57)]
>100 ppm: MIC values in ppm C. albicans (C. albicans) | MIC values in ppm P. aeruginosa (P. aeruginosa) | MIC values in ppm E. coli (E. coli) | MIC values in ppm A. niger (A. niger) | MIC values in ppm S. aureus (S. aureus)

Cc1cc(/C=C/c2nc(-c3ccccc3)cs2)cc(C)c1O [Compound of formula (58)]
>100 ppm: MIC values in ppm C. albicans (C. albicans) | MIC values in ppm P. aeruginosa (P. aeruginosa) | MIC values in ppm E. coli (E. coli) | MIC values in ppm A. niger (A. niger) | MIC values in ppm S. aureus (S. aureus)

Cc1cccc(/C=C/c2nc(-c3ccccc3)cs2)c1O [Compound of formula (59)]
>100 ppm: MIC values in ppm C. albicans (C. albicans) | MIC values in ppm P. aeruginosa (P. aeruginosa) | MIC values in ppm E. coli (E. coli) | MIC values in ppm A. niger (A. niger) | MIC values in ppm S. aureus (S. aureus)

Oc1cc(OCc2ccccc2)ccc1/C=C/c1nc(-c2ccccc2)cs1 [Compound of formula (60)]
>100 ppm: MIC values in ppm C. albicans (C. albicans) | MIC values in ppm P. aeruginosa (P. aeruginosa) | MIC values in ppm E. coli (E. coli) | MIC values in ppm A. niger (A. niger) | MIC values in ppm S. aureus (S. aureus)

COc1cc(O)ccc1/C=C/c1nc(-c2ccccc2)cs1 [Compound of formula (61)]
>100 ppm: MIC values in ppm C. albicans (C. albicans) | MIC values in ppm P. aeruginosa (P. aeruginosa) | MIC values in ppm E. coli (E. coli) | MIC values in ppm A. niger (A. niger) | MIC values in ppm S. aureus (S. aureus)
